“Also recorded” adds a separate entry of the source.
Assays:
SCC12B2 cell line = test: Organotypic 3D reconstructed skin culture, cell differentiation (marker staining); assay type: cell-based, human; details: SCC12B2-derived 3D reconstructed skin; for effect on cell differentiation (staining for psoriasine and cytokeratin 10): 100 µM for 21 days, immunofluorescence; for effect on cell differentiation: result in words
keratinocytes [1] = test: IL-6 secretion by keratinocytes upon RT induction, time course (protocol of figure 5); assay type: cell-based; details: ARV after demethylating treatment; result in words
Experimental: (§1) • Figures 1A-C represent the expression of cytokeratin 10 on SCC12B2-derived 3D reconstructed skin detected by immunohistochemistry. • Figure 1A represents untreated SCC12B2-derived 3D reconstructed skin. • Figure 1B represents SCC12B2-derived 3D reconstructed skin treated by AZT (100 µM) for 21 days: • Figure 1C: represents SCC12B2-derived 3D reconstructed skin treated by efavirenz (100 µM) for 21 days. Arrow indicates cytokeratin 10 expression. • Figures 2A-D represent the expression of psoriasine on SCC12B2-derived 3D reconstructed skin detected by immunofluorescence. • Figure 2A represents untreated SCC12B2-derived 3D reconstructed skin. • Figure 2B represents SCC12B2-derived 3D reconstructed skin treated by AZT (100 µM) for 21 days: • Figure 2C represents SCC12B2-derived 3D reconstructed skin treated by Lamivudine (100 µM) for 21 days. • Figure 2D represents SCC12B2-derived 3D reconstructed skin treated by AZT (100 µM) and Lamivudine (100 µM) for 21 days. […]

keratinocytes [2] = test: IL-6 production by keratinocytes, ARVs given concomitantly with stimulation of RT activity; assay type: cell-based; details: ARV concomitant with treatment that stimulated RT activity; result in words
Experimental: as §1

keratinocytes [3] = test: Cytokine production by keratinocytes after demethylating treatment (protocol of figure 5, Day 7); assay type: cell-based; details: after demethylation treatment
Experimental: • Figures 1A-C represent the expression of cytokeratin 10 on SCC12B2-derived 3D reconstructed skin detected by immunohistochemistry. • Figure 1A represents untreated SCC12B2-derived 3D reconstructed skin. • Figure 1B represents SCC12B2-derived 3D reconstructed skin treated by AZT (100 µM) for 21 days: • Figure 1C: represents SCC12B2-derived 3D reconstructed skin treated by efavirenz (100 µM) for 21 days. Arrow indicates cytokeratin 10 expression. • Figures 2A-D represent the expression of psoriasine on SCC12B2-derived 3D reconstructed skin detected by immunofluorescence. • Figure 2A represents untreated SCC12B2-derived 3D reconstructed skin. • Figure 2B represents SCC12B2-derived 3D reconstructed skin treated by AZT (100 µM) for 21 days: • Figure 2C represents SCC12B2-derived 3D reconstructed skin treated by Lamivudine (100 µM) for 21 days. • Figure 2D represents SCC12B2-derived 3D reconstructed skin treated by AZT (100 µM) and Lamivudine (100 µM) for 21 days. White staining denoted psoriasine expression. • Figures 3A-D represent the expression of cytokeratin 10 on SCC12B2-derived 3D reconstructed skin detected by immunofluorescence. • Figure 3A. represents untreated SCC12B2-derived 3D reconstructed skin. • Figure 3B represents SCC12B2-derived 3D reconstructed skin treated by AZT (100 µM) for 21 days: • Figure 3C represents SCC12B2-derived 3D reconstructed skin treated by lamividune (100 µM) for 21 days; • Figure 3D represents SCC12B2-derived 3D reconstructed skin treated with a combination of AZT (100 µM) and lamivudine (100 µM). White staining denoted cytokeratin 10 expression. • Figure 4 represents a histogram showing the level of endogenous RT activity in 3D reconstructed skin from various cell lines: PC F2 (A), PC B2 (B) or PC KN (C). PC F2 were obtained from the SCC12F2 cell line; PC B2 from the SCC12B2 cell line and PC KN from primary cultured human keratinocytes. Treatment were either azidothymidine (AZT; 2.) or efavirenz (3.) compared to the control (untreated; 1.). • Figure 5 represents a fow chart of the different treatments that aim at mimicking the initiating events of the psoriatic lesions • Figure 6 represents a histogram showing the level of the indicated cytokine production by keratinocytes at Day 7 of the protocol described in figure 5. Data were normalized versus control condition (fold increase in arbitrary unit). 1: IL-17 A; 2: IFN-γ; 3: TNF-α, 4: IL-1 RA and 5: IP-10. White columns represent the expression level in control cells. Black columns represent the expression level in cells treated with deoxyuridine, Grey columns represent the expression level in cells treated with desoxyuridine and Eviplera®. Hatched columns represent the expression level in cells treated with desoxyuridine and rilpivirine. Columns with dots represent the expression level in cells treated with desoxyuridine and efavirenz. • Figure 7 represents a graph showing time course (D0: Day 0; D2: Day 2; D5: Day 5; D7: Day 7) of the level of IL-6 production (fold increase) by keratinocytes according to the protocol described in figure 5. The expression is normalized to control at the corresponding time point. Diamond shape = untreated cells; Filled square = demethylating treated cells; Open square = treated with AZT; Filled circle = treated with lamivudine; Open circle = treated with Eviplera®. • Figure 8 represents a graph showing effects of ARVs upon simultaneous stimulation of RT activities on the production of IL-6 by keratinocytes. Values are normalized versus control. Filled diamond shape = control; Filled square = treated with demethylating agent; Triangle = treated with demethylating agent + Eviplera®; open diamond shape = treated with demethylating agent + lamivudine; Open circle = treated with demethylating agent + AZT; Filled circle = treated with demethylating agent + AZT + Lamivudine. […]

endogenous RT activities = test: Endogenous reverse transcriptase activity in extracts of ARV-treated 3D reconstructed skin (colorimetric Mn2+ and Mg2+ RT kit); assay type: cell-based, human; details: Mn2+ and Mg2+ dependent; reconstructed skin from SCC12F2, SCC12B2 and primary keratinocytes; result in words
From the text: Endogenous RT activities are increased in the psoriatic lesion when compared to non lesional psoriatic skin or normal skin extracts. […] The origin and the nature of these proteins are unknown but considering that the disease is not transmissible horizontally they should be attributed to endogenous proteins. In fact several cellular proteins including telomerase, LINE ORF2 and RT from human endogenous retroviruses (HERV) harbour a reverse transcriptase activity. LINE ORF2 is a Mg^2+-dependent RT, like RTs of the HERVs belonging to the MMTV-like group. The MLV-like HERV group harbours a Mn^2+-dependent RT. Effects of ARV on these activities was assessed in 3D culture models: Various reconstructed skin were assessed for RT inhibition through RTI treatment. They were generated from SSC12F2 and SCC12B2 cell lines and from normal primary keratinocytes (KN).
Reverse transcriptase assay : Protein extracts were prepared by crushing the cryostat skin sections (100 µm) in liquid nitrogen, incubating in ice-cold lysis buffer (10 mM Tris-HCl pH 7.5, 1 mM MgCl2, 1 mM EDTA, 0.1 mM PMSF, 5 mM β-mercaptoethanol, 0.5 % CHAPS, 10 % glycerol, 1 % NP40) and then subjected to three freeze/thaw cycles (LN2/4°C). […] RT activities were quantified with colorimetric highly sensitive Mn^2+ and Mg^2+ RT kit (Cavidi, Uppsala, Sweden) according to the manufacturer's instructions. […]

## Nc1ccn([C@H]2CS[C@@H](CO)O2)c(=O)n1 [lamivudine, 2',3'-dideoxy-3'-thiacytidine]
SCC12B2 cell line
  effect on cell differentiation (staining for psoriasine and cytokeratin 10): Neither AZT, nor lamivudine has effect
Keratinocytes [1]
  effect on the synthesis of IL-6: neither AZT nor lamivudine have effect
Keratinocytes [2]
  effect on the synthesis of IL-6: no effect

## C[C@H](Cn1cnc2c(N)ncnc21)OCP(=O)(O)O [Tenofovir]
SCC12B2 cell line
  effect on cell differentiation: impact cell differentiation

## Cc1cc(C#N)cc(C)c1Oc1nc(Nc2ccc(C#N)cc2)nc(N)c1Br [Etravirine]
SCC12B2 cell line
  effect on cell differentiation: no or minor effects

## Cc1cc(/C=C/C#N)cc(C)c1Nc1ccnc(Nc2ccc(C#N)cc2)n1 [Rilpivirine]
Keratinocytes [3]
  IFN-α expression decreased: more than 50%
  IP10 expression decreased: more than 50%

## Cc1cn([C@H]2C[C@H](N=[N+]=[N-])[C@@H](CO)O2)c(=O)[nH]c1=O [AZT, Zidovudine]
Endogenous RT activities
  endogenous RT activities: less effective
SCC12B2 cell line
  effect on cell differentiation (staining for psoriasine and cytokeratin 10): Neither AZT, nor lamivudine has effect
  effect on cell differentiation: no effect; also recorded: no or minor effects
Keratinocytes [1]
  effect on the synthesis of IL-6: neither AZT nor lamivudine have effect
Keratinocytes [2]
  effect on the synthesis of IL-6: no effect

## O=C1Nc2ccc(Cl)cc2[C@@](C#CC2CC2)(C(F)(F)F)O1 [Efavirenz]
Endogenous RT activities
  endogenous RT activities: decreased endogenous RT activities of both type
Keratinocytes [3]
  IFN-α expression decreased: more than 50%
  IL17A expression: undetectable
  IP10 expression decreased: more than 50%
  TNF-α production: potent induction
SCC12B2 cell line
  effect on cell differentiation: reverses the "tumoral" phenotype of SCC12B2 cell line
SCC12B2 cell line; listed as efavirenz
  effect on cell differentiation: impact cell differentiation

From patent EP2965760A1, “Combination of antiretroviral agents for use in the prevention or treatment of chronic inflammatory diseases” (Université de Montpellier, priority 2014, dated 2016)
